From patent US12281299B2, “Control of nitrogen fixation in rhizobia that associate with cereals” (Massachusetts Institute of Technology, priority 2019, dated 2025)

Experiments:
R. sp. IRBG74 = test: Genetic part characterization for Rhizobia (promoters, RBSs, terminators, inducible systems; fluorescence reporter, flow cytometry); type: cell-based, Rhizobium sp.; conditions: synthetic RBS strength in R. sp. IRBG74; plasmid pMR-40, IPTG-inducible system, 1 mM IPTG induction
Text: Construction and characterization genetic parts for Rhizobia. Genetic part libraries were built on a pBBR1-ori plasmid pMR-1 using Gibson assembly (New England Biolabs, Cat # E2611). The fluorescence proteins, GFPmut3b and mRFP1 were used as reporters. The Anderson promoter library (Anderson, J. et al. BglBricks: A flexible standard for biological part assembly. 4, 1 (2010)) on the BioBricks Registry were utilized for the characterization of constitutive promoters (FIGS. 11A-11C). To characterize inducible promoters, a regulator protein is constitutively expressed by the PlacIq promoter, and GFP expression is driven by a cognate inducible promoter from the opposite direction, facilitating replacement of the reporter with gene of interest (e.g., T7 RNAP and nifA) and transfer of the controller unit across different plasmid backbones for diverse microbes. The following combinations of cognate regulators and inducible promoters were characterized. IPTG inducible LacI-A1lacO1, DAPG inducible PhlF-PPhl, aTc inducible TetR-PTet, 3OC6HSL inducible LuxR-PLux, salicylic acid inducible NahR-PSal, and cuminic acid inducible CymR-PCym systems were optimized for R. sp. IRBG74 (FIG. 14). Opine inducible OccR-Pocc, and nopaline inducible NocR-Pnoc systems were optimized for A. caulinodans (FIGS. 20A-20F and Tables 9 and 10). For RBS characterization, an IPTG-inducible GFP expression plasmid pMR-40 was used and GFP was expressed to the highest levels with 1 mM IPTG (FIGS. 12A-12B). RBS library for GFP was designed using the RBS library calculator at the highest-resolution mode, and the 3′ end of the 16S rRNA sequences were adjusted according to the species (3′-ACCTCCTTC-5′ for R. sp. IRBG74). Terminators for T7 RNAP were characterized by placing a terminator between two fluorescence reporters expressed from a single T7 wild-type promoter located upstream of the first fluorescence protein GFP. The expression of the two fluorescence proteins is enabled by the controller strain MR18 encoding the IPTG-inducible T7 RNAP system by 1 mM IPTG (FIGS. 13A-13B). The terminator strength (Ts) was determined by normalizing fluorescence levels of a terminator construct by a reference construct pMR-66 where a 40 bp spacer was placed between the reporters. All genetic parts for Rhizobia were characterized as follows.

P. protegens Pf-5 = test: Genetic part characterization for P. protegens (promoters, RBSs, terminators, inducible systems; fluorescence reporter, flow cytometry); type: cell-based, Pseudomonas protegens; conditions: for Strength (GFP, au): synthetic RBS strength in P. protegens Pf-5, plasmid pMR-65, arabinose-inducible system, 7 μM arabinose induction
Text: Construction and characterization genetic parts for P. protegens. Genetic part libraries were built on a pRO1600-ori plasmid pMR-2 using Gibson assembly (New England Biolabs, Cat # E2611). The fluorescence proteins, GFPmut3b and mRFP1 were used as reporters. The Anderson promoter library on the BioBricks Registry were utilized for the characterization of constitutive promoters (FIGS. 11A-11C). The following combinations of cognate regulators and inducible promoters were characterized. IPTG inducible LacI-Ptac, DAPG inducible PhlF-PPhl, aTc inducible TetR-PTet, 3OC6HSL inducible LuxR-PLux, arabinose inducible AraC-PBAD, cuminic acid inducible CymR-PCym, and naringenin inducible FdeR-PFde were optimized (FIGS. 15A-15C). […] RBS library for GFP was designed using the RBS library calculator at the highest-resolution mode, and the 3′ end of the 16S rRNA sequences were adjusted according to the species (3′-ACCTCCTTA-5′ for P. protegens Pf-5). Terminators for T7 RNAP were characterized by placing a terminator between two fluorescence reporters expressed from a single T7 wild-type promoter located upstream of the first fluorescence protein GFP. The expression of the two fluorescence proteins is enabled by an IPTG-inducible T7 RNAP expression system of the controller strain MR7 (FIGS. 13A-13B). All genetic parts for P. protegens Pf-5 were characterized as follows.

RBST-23 (DNA TAACAATTTCACACATCTAGAGCTAATCTTCGCGTACTAATTAGGCAAGTAATG; chemistry not fully specified)
Strength (GFP, au) (R. sp. IRBG74): 84.4 au

RBST-26 (DNA TAACAATTTCACACATCTAGAGCTAATCATCTCGTACTAAGCACGCAAGTAATG; chemistry not fully specified)
Strength (GFP, au) (R. sp. IRBG74): 36 au

RBST-30 (DNA TAACAATTTCACACATCTAGAGCTAATCTTCGCGTACTAACAACGCAAGTAATG; chemistry not fully specified)
Strength (GFP, au) (R. sp. IRBG74): 2.95 au

RBST-10 (DNA TAACAATTTCACACATCTAGAGCTAATCATCGCGTACTAATGAGGCAAGTAATG; chemistry not fully specified)
Strength (GFP, au) (R. sp. IRBG74): 1590 au

RBST-28 (DNA TAACAATTTCACACATCTAGAGCTAATCTTCGCGTACTAAGAACGCAAGTAATG; chemistry not fully specified)
Strength (GFP, au) (R. sp. IRBG74): 13 au

RBST-13 (DNA TAACAATTTCACACATCTAGAGCTAATCTTCGCGTACTAAAAAGGCAAGTAATG; chemistry not fully specified)
Strength (GFP, au) (R. sp. IRBG74): 895.5 au

RBST-27 (DNA TAACAATTTCACACATCTAGAGCTAATCATCGCGTACTAACTACGCAAGTAATG; chemistry not fully specified)
Strength (GFP, au) (R. sp. IRBG74): 12.2 au

RBST-19 (DNA TAACAATTTCACACATCTAGAGCTAATCATCGCGTACTAAGTAGGCAAGTAATG; chemistry not fully specified)
Strength (GFP, au) (R. sp. IRBG74): 242 au

RBST-14 (DNA TAACAATTTCACACATCTAGAGCTAATCTTCGCGTACTAAGAAGGCAAGTAATG; chemistry not fully specified)
Strength (GFP, au) (R. sp. IRBG74): 632.5 au

RBST-15 (DNA TAACAATTTCACACATCTAGAGCTAATCATCTCGTACTAAATAGGCAAGTAATG; chemistry not fully specified)
Strength (GFP, au) (R. sp. IRBG74): 648.5 au

RBST-16 (DNA TAACAATTTCACACATCTAGAGCTAATCATCTCGTACTAATAAGGCAAGTAATG; chemistry not fully specified)
Strength (GFP, au) (R. sp. IRBG74): 532 au

RB5r9 (DNA TAACAATTTCACACATCTAGAGCTAATCATCTCGTACTAATGAGGCAAGTAATG; chemistry not fully specified)
Strength (GFP, au) (R. sp. IRBG74): 1593.5 au

RBST-18 (DNA TAACAATTTCACACATCTAGAGCTAATCATCGCGTACTCAATAGGCCAGTAATG; chemistry not fully specified)
Strength (GFP, au) (R. sp. IRBG74): 305.5 au

RB5r5 (DNA TAACAATTTCACACATCTAGAGCTAATCATCGCGTACTAAGGAGGCAAGTAATG; chemistry not fully specified)
Strength (GFP, au) (R. sp. IRBG74): 3560 au

RBST-12 (DNA TAACAATTTCACACATCTAGAGCTAATCATCGCGTACTAAAAAGGCAAGTAATG; chemistry not fully specified)
Strength (GFP, au) (R. sp. IRBG74): 1138 au

RBST-22 (DNA TAACAATTTCACACATCTAGAGCTAATCTTCGCGTACTAAGTAGGCAAGTAATG; chemistry not fully specified)
Strength (GFP, au) (R. sp. IRBG74): 130 au

RBST-21 (DNA TAACAATTTCACACATCTAGAGCTAATCATCGCGTACTCAGCAGGCAAGTAATG; chemistry not fully specified)
Strength (GFP, au) (R. sp. IRBG74): 183 au

RBST-11 (DNA TAACAATTTCACACATCTAGAGCTAATCATCGCGTACTCACGAGGCAAGTAATG; chemistry not fully specified)
Strength (GFP, au) (R. sp. IRBG74): 1554 au

RBST-25 (DNA TAACAATTTCACACATCTAGAGCTAATCATCTCGTACTCAATAGGCAAGTAATG; chemistry not fully specified)
Strength (GFP, au) (R. sp. IRBG74): 45.45 au

RB5r1 (DNA ATTTCACACATCTAGAGCTAATCATCTCGTACTAAAGAGGAGAAATTAACCATG; chemistry not fully specified)
Strength (GFP, au) (R. sp. IRBG74): 8242 au

RBST-24 (DNA TAACAATTTCACACATCTAGAGCTAATCTTCTCGTACTAACAAGGCAAGTAATG; chemistry not fully specified)
Strength (GFP, au) (R. sp. IRBG74): 75.15 au

RB5r4 (DNA TAACAATTTCACACATCTAGAGCTAATCATCTCGTACTAAAGAGGCAAGTAATG; chemistry not fully specified)
Strength (GFP, au) (R. sp. IRBG74): 3618 au

RB5r3 (DNA ATTTCACACATCTAGAATTAAAGAGGAGAAATTAACCATG; chemistry not fully specified)
Strength (GFP, au) (R. sp. IRBG74): 6238.5 au

RB5r6 (DNA TAACAATTTCACACATCTAGAGCTAATCATCGCGTACTCAAGAGGCAAGTAATG; chemistry not fully specified)
Strength (GFP, au) (R. sp. IRBG74): 2614.5 au

RBSp1 (DNA CTAGCGCAGGTCCAACGTTTTTCTAAGCAAGGAGGTCATATG; expressed or natural sequence)
Strength (GFP, au) (P. protegens Pf-5): 25090 au

RBSp20 (DNA GAATTCTCAGCTCACGGACAGGAGGGTCGGATG; expressed or natural sequence)
Strength (GFP, au) (P. protegens Pf-5): 4426 au

RB5r7 (DNA TAACAATTTCACACATCTAGAGCTAATCTTCGCGTACTAAAGAGGCAAGTAATG; chemistry not fully specified)
Strength (GFP, au) (R. sp. IRBG74): 2418.5 au

RBST-20 (DNA TAACAATTTCACACATCTAGAGCTAATCATCTCGTACTAACGAGGCAAGTAATG; chemistry not fully specified)
Strength (GFP, au) (R. sp. IRBG74): 248 au

RBSp28 (DNA CTAGCGCAGGTCCAACCTTTTTCTAAGCAACTAGGTCATATG; expressed or natural sequence)
Strength (GFP, au) (P. protegens Pf-5): 389 au

R135135 (DNA CTAGCGAAGCTCCAACGTTTTTCTAAGCAAGGAGGTCATATG; chemistry not fully specified)
Strength (GFP, au) (P. protegens Pf-5): 17990 au

RB5r8 (DNA TAACAATTTCACACATCTAGAGCTAATCATCTCGTACTCAGGAGGCAAGTAATG; chemistry not fully specified)
Strength (GFP, au) (R. sp. IRBG74): 1882.5 au

CC(C)c1ccc(C(=O)O)cc1 [cuminic acid, Cuminic acid, reference compound]
function of inducible system (P. protegens Pf-5; P. protegens Pf-5, pRO1600 plasmid): functional

RBST-29 (DNA TAACAATTTCACACATCTAGAGCTAATCTTCGCGTACTAAAAACGCAAGTAATG; chemistry not fully specified)
Strength (GFP, au) (R. sp. IRBG74): 4.6 au

RBST-31 (DNA TAACAATTTCACACATCTAGAGCTAATCTTCTCGTACTCATGACGCAAGTAATG; chemistry not fully specified)
Strength (GFP, au) (R. sp. IRBG74): 1.45 au

RBSp25 (DNA GAATTCTACACTAACGGACAGCAGGGTCGGATG; expressed or natural sequence)
Strength (GFP, au) (P. protegens Pf-5): 3542 au

RBSp7 (DNA GAATTCTAAACTAACGGACAGGAGGGTCCGATG; expressed or natural sequence)
Strength (GFP, au) (P. protegens Pf-5): 13390 au

RB5r2 (DNA ATTTCACACATCTAGAGCTAATCATCGCGTACTCAGGAGGCAAGTAATG; chemistry not fully specified)
Strength (GFP, au) (R. sp. IRBG74): 7181.5 au

RBSp27 (DNA GAATTCTCAGCTAACGGACAGCAGGGTCGGATG; expressed or natural sequence)
Strength (GFP, au) (P. protegens Pf-5): 1265 au

RBSp21 (DNA GAATTCTCAACTAACGGACAGGAGGGTCGGGATG; expressed or natural sequence)
Strength (GFP, au) (P. protegens Pf-5): 4110 au

RBST-17 (DNA TAACAATTTCACACATCTAGAGCTAATCTTCTCGTACTAAAGAGGCAAGTAATG; chemistry not fully specified)
Strength (GFP, au) (R. sp. IRBG74): 488 au
